Reference: US12503444B2, “Compound containing benzene ring and application thereof” (WUHAN LL SCIENCE AND TECHNOLOGY DEVELOPMENT CO., LTD., priority 2019, dated 2025)
Where two headings read alike, the source gives them in different places.

Legend:
[1] = In vitro cytotoxicity assay in HepG2 cells, CCK-8 method; conditions: human
Experimental: (§2) In vitro cytotoxicity assay for the compounds disclosed herein was performed in HepG2 cells using the CCK-8 method. HepG2 cells (Beina Bio) in the logarithmic growth phase were collected, the concentration of cell suspension was adjusted, and then the cells were plated on a 96-well cell culture plate at 50,000 cells/well. The cells were then incubated overnight in a cell incubator (5%/humidity, 37° C.), and after 80-90% cell confluence was achieved, test compounds or vehicle (DMSO) at various concentration gradients were added after medium change. The resulting mixture was incubated in the cell incubator (5% humidity, 37° C.) for 48 h. After the treatment, the medium in the plate was discarded. The plate was washed twice with PBS, added with CCK-8 working solution (Beyotime) at 100 μL per well, and then incubated at 37° C. for 1.5 h away from the light. Absorbance at OD450 nm was measured for each well on a microplate reader, and CC50 value of each compound was analyzed and calculated.

[2] = In vitro metabolic stability, liver microsome incubation (human); format: in vitro ADME; conditions: 1 mg/mL liver microsome protein, 37° C.; for half-life: human, liver microsomes, read-out: T1/2 in human liver microsome min
Experimental: (§1) The in vitro metabolic stability of the compounds disclosed herein was determined through incubation of liver microsomes of various species. A proper amount of test compound was added into a liver microsome reaction system (1 mg/mL liver microsome protein, 25 U/mL glucose-6 phosphate dehydrogenase, 1 mM NADP, 6 mM D-glucose 6-phosphate and 5 mM MgCl2), and then the mixture was incubated in a water bath kettle at 37° C. to start the reaction. At each time point, 100 μL of the reaction system was added into a centrifuge tube containing 400 μL of internal standard working solution (containing a 200 ng/mL solution of dexamethasone, diclofenac, tolbutamide and labetalol in acetonitrile) precooled at 0° C. so as to stop the reaction, and the mixture was then centrifuged at 10,000 g for 10 min at 4° C. The supernatant was collected for LC-MS assay so as to obtain the values of in vitro metabolic half-life of the test compounds in liver microsomes of various species.

[3] = biological target: T1, hP2X4 (human purinergic P2X receptor subtype 4) (Homo sapiens, UniProt Q99571); assay: FLIPR assay of intracellular calcium increase induced by activation of hP2X4 expressed in HEK293 cells (agonist BZ-ATP 2.5 μM); format: cell-based; conditions: HEK293 cells stably expressing hP2X4, FLIPR, read-out: P2X4 IC50
T1 sequence (Q99571 1-404 isoform Q99571-2): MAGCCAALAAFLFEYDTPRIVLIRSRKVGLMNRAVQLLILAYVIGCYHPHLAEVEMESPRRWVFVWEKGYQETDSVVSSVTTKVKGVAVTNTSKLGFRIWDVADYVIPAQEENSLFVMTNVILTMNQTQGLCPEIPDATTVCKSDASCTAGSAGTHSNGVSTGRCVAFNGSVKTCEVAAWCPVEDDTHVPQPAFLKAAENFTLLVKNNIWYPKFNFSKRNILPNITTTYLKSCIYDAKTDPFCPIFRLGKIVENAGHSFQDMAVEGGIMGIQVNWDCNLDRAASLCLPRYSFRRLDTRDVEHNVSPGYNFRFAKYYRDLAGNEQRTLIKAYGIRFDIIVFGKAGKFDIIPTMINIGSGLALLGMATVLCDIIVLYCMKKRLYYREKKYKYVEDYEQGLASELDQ
In short: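 Inhibition of the calcium signal was measured by FLIPR after a 2.5 μM final BZ-ATP challenge, with readings every second over 2 min. Stable hP2X4-HEK293 cells were dye-loaded (Calcium 6, 37° C, 1.5 h) and equilibrated with test compound for 30 min at room temperature beforehand.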

[4] = In vitro metabolic stability, liver microsome incubation (guinea pig); format: in vitro ADME; conditions: 1 mg/mL liver microsome protein, 37° C.; for half-life: guinea pig, liver microsomes, read-out: T1/2 in guinea pig liver microsome min
Experimental: as §1

[5] = In vitro metabolic stability, liver microsome incubation (rat); format: in vitro ADME; conditions: 1 mg/mL liver microsome protein, 37° C.; for half-life: rat, liver microsomes, read-out: T1/2 in rat liver microsome min
Experimental: as §1

[6] = tested on: Male Dunkin Hartley guinea pigs; assay: Citric acid only cough model in guinea pigs; format: in vivo; conditions: guinea pig; for Cough inhibition rate Vs vehicle (%) / Cough latency / Mean number of coughs / Cough inhibition rate Vs baseline (%): 17.5% citric acid; for Cough inhibition rate Vs baseline (%): before vs after administration
Experimental: Male Dunkin Hartley guinea pigs (300-350 g) were placed in an animal atomization box, and then the door of the atomization box was closed while the ultrasonic atomizer (Guangdong Yuehua) was turned on. 17.5% citric acid gas was introduced into the atomization box at a maximum atomization rate (about 2 mL/min) for 20 s, and coughs of the animals within 10 min were continuously observed from the time of the start of atomization. During the 10-min observation, coughs of the animals needed to be counted manually, and the number of coughs were judged according to cough postures of the guinea pigs, such as abdominal twitching, mouth opening, and head inclining downward abruptly. The number of coughs during the first 5 min and that during 10 min were recorded, and the cough latency of the guinea pigs, namely the time from the initiation of citric acid induction to the appearance of the 1st cough, was also recorded.
Cough inhibition rate Vs vehicle represents the percentage of reduction
[formula] in the number of coughs in the administration group compared to the vehicle group upon citric acid challenge; Cough inhibition rate Vs baseline represents the percentage of reduction
[formula] in the number of coughs in the administration group before and after administration.

HepG2 cells [7] = tested on: HepG2 cells
Experimental: as §2

HepG2 cells [8] = assay: In vitro cytotoxicity assay in HepG2 cells, CCK-8 method; conditions: read-out: HepG2 CC50, 48 h, CCK-8
Experimental: as §2

[9] = 20 mg/kg group, before administration (baseline)
[10] = 60 mg/kg group, before administration (baseline)

half-life [2]	half-life [4]	half-life [5]	SMILES	CC50 at 48 h [1]	IC50 ([3]; numeric values)	T1/2 in human liver microsome min [2]	CC50 (HepG2 cells [7])	also measured
11.5 h	2.58 h	6.03 h	NS(=O)(=O)c1cc(NC(=O)Cc2ccccc2Cl)cc2nn(C(F)F)cc12 [Compound 1, 2-(2-chlorophenyl)-N-(2-(difluoromethyl)-4-sulfamoyl-2H-indazol-6-yl)acetamide]	> 200000 nM	29.1 nM	–	–	Effect on number of coughs and cough latency (in words) ([6]; 20 mg/kg and 60 mg/kg, compared with vehicle group or before administration): reduce the number of coughs and prolong the cough latency in a dose-dependent manner; Effect on number of coughs and cough latency (in words) ([6]; 60 mg/kg, no significant difference from dextromethorphan at the same dosage): significant improvement effect; Cough inhibition rate Vs vehicle (%) ([6]; 20 mg/kg): 20.59%; Cough latency [6, 9]: 94.29 s; Mean number of coughs [6, 9]: 18.57; Cough latency ([6]; 20 mg/kg, after administration): 214.29 s; Mean number of coughs ([6]; 20 mg/kg, after administration): 15.29; Cough inhibition rate Vs baseline (%) ([6]; 20 mg/kg): 17.69%; Cough inhibition rate Vs vehicle (%) ([6]; 60 mg/kg): 46.75%; Cough latency [6, 10]: 84.88 s; Mean number of coughs [6, 10]: 18.50; Cough latency ([6]; 60 mg/kg, after administration): 221.75 s; Mean number of coughs ([6]; 60 mg/kg, after administration): 10.25; Cough inhibition rate Vs baseline (%) ([6]; 60 mg/kg): 44.59%
2.57 h	3.54 h	0.809 h	NS(=O)(=O)c1cc(NC(=O)Cc2ccccc2Cl)cc2n[nH]cc12 [Compound 2, 2-(2-chlorophenyl)-N-(4-sulfamoyl-2H-indazol-6-yl)acetamide]	> 200000 nM	5.4 nM	–	–	–
3.23 h	0.809 h	1.84 h	N#Cc1ccc(Cn2cc3c(S(N)(=O)=O)cc(NC(=O)Cc4ccccc4Cl)cc3n2)cc1 [Compound 91, 2-(2-chlorophenyl)-N-(2-(4-cyanobenzyl)-4-sulfamoyl-2H-indazol-6-yl)acetamide]	> 200000 nM	–	–	–	IC50 ([3]; class symbols): ≤ 10 nM
5.96 h	0.0978 h	2.37 h	CCCn1cc2c(S(N)(=O)=O)cc(NC(=O)Cc3ccccc3Cl)cc2n1 [Compound 5-A, 2-(2-chlorophenyl)-N-(2-propyl-4-sulfonylamino-2H-indazol-6-yl)acetamide]	> 200000 nM	5.24 nM	–	–	–

The next lines start with the compound.

SMILES	half-life [2]	half-life [4]	half-life [5]	CC50 at 48 h [1]	IC50 ([3]; numeric values)	T1/2 in human liver microsome min [2]	CC50 (HepG2 cells [7])	also measured
CC(C)CCn1ncc2c(S(N)(=O)=O)cc(NC(=O)Cc3ccccc3Cl)cc21 [Compound 8-B, 2-(2-chlorophenyl)-N-(1-isopentyl-4-sulfamoyl-2H-indazol-6-yl)acetamide]	–	–	–	–	0.38 nM	0.4488 h	> 200000 nM	–
COc1ccc(CN(Cc2ccc(OC)cc2)S(=O)(=O)c2cc(NC(=O)Cc3ccccc3Cl)cc3c2cnn3Cc2ccc(C#N)cc2)cc1 [Compound 91A, N-(4-(N,N-bis(4-methoxybenzyl)sulfamoyl)-1-(4-cyanobenzyl)-1H-indazol-6-yl)-2-(2-chlorophenyl)acetamide]	–	–	–	–	–	1.6827 h	–	CC50 (HepG2 cells [8]): > 200000 nM; IC50 ([3]; class symbols): ≤ 10 nM; T1/2 in guinea pig liver microsome min [4]: 1.424 h; T1/2 in rat liver microsome min [5]: 2.0857 h
CC(C)Cn1ncc2c(S(N)(=O)=O)cc(NC(=O)Cc3ccccc3Cl)cc21 [Compound 7-B, 2-(2-chlorophenyl)-N-(1-isobutyl-4-sulfamoyl-2H-indazol-6-yl)acetamide]	–	–	–	–	2.33 nM	0.5413 h	150000 nM	–
CCCn1ncc2c(S(N)(=O)=O)cc(NC(=O)Cc3ccccc3Cl)cc21 [Compound 5-B, 2-(2-chlorophenyl)-N-(1-propyl-4-sulfonylamino-1H-indazol-6-yl)acetamide]	–	–	–	–	2.2 nM	1.094 h	> 200000 nM	–
